Consider 13 compounds from patent US10435396B2, “2-substituted indazoles, methods for producing same, pharmaceutical preparations that contain same, and use of same to produce drugs” (Bayer Pharma Aktiengesellschaft, priority 2016, dated 2019).

For orientation: IC50 means the midpoint of a concentration-inhibition curve.

The target of assay [1] is human IRAK4 (Homo sapiens (Human), UniProt Q9NWZ3). The assay can be described thus: IRAK4 kinase assay (IRAK4 TR-FRET assay). Format: biochemical. As to conditions: 1 mM ATP. As to the method:
The IRAK4-inhibitory activity of the substances according to the invention was measured in the IRAK4 TR-FRET assay (TR-FRET=Time Resolved Fluorescence Resonance Energy Transfer) described hereinafter.
Recombinant fusion protein from N-terminal GST (glutathione S-transferase) and human IRAK4, expressed in baculovirus-infected insect cells (Hi5, BTI-TN-5B1-4, cell line purchased from Invitrogen, catalogue No. B855-02) and purified via affinity chromatography, was used as enzyme. The substrate used for the kinase reaction was the biotinylated peptide biotin-Ahx-[…] (C-terminus in amide form) which can be purchased, for example, from Biosyntan GmbH (Berlin-Buch).
For the assay, 11 different concentrations in the range from 20 μM to 0.073 nM were prepared from a 2 mM solution of the test substance in DMSO. 50 nl of the respective solution were pipetted into a black low-volume 384-well microtitre plate (Greiner Bio-One, Frickenhausen, Germany), 2 μl of a solution of IRAK4 in assay buffer [50 mM HEPES pH 7.5, 5 mM MgCl2, 1.0 mM dithiothreitol, 30 μM activated sodium orthovanadate, 0.1% (w/v) of bovine gamma-globulin (BGG) 0.04% (v/v) nonidet-P40 (Sigma)] were added and the mixture was incubated for 15 min to allow prebinding of the substances to the enzyme prior to the kinase reaction. The kinase reaction was then started by addition of 3 μl of a solution of adenosine triphosphate (ATP, 1.67 mM=final concentration in 5 μl of assay volume: 1 mM) and peptide substrate (0.83 μM=final concentration in 5 μl assay volume: 0.5 μM) in assay buffer, and the resulting mixture was incubated at 22° C. for the reaction time of 45 min. The concentration of the IRAK4 was adjusted to the respective activity of the enzyme and set such that the assay was carried out in the linear range. Typical concentrations were in the order of about 0.2 nM. The reaction was stopped by addition of 5 μl of a solution of TR-FRET detection reagents [0.1 μM streptavidin-XL665 (Cisbio Bioassays; France, catalogue No. 610SAXLG)] and 1.5 nM anti-phosphoserine antibody [Merck Millipore, “STK Antibody”, catalogue No. 35-002] and 0.6 nM LANCE EU-W1024-labelled anti-mouse-IgG antibody (Perkin-Elmer, product No. AD0077; alternatively, it is possible to use a terbium cryptate-labelled anti-mouse-IgG antibody from Cisbio Bioassays) in aqueous EDTA solution (100 mM EDTA, 0.4% [w/v] bovine serum albumin [BSA] in 25 mM HEPES pH 7.5).
The resulting mixture was incubated at 22° C. for 1 h to allow formation of a complex of the biotinylated phosphorylated substrate and the detection reagents. The amount of the phosphorylated substrate was then evaluated by measuring the resonance energy transfer from europium chelate-labelled anti-mouse-IgG antibody to streptavidin-XL665. To this end, the fluorescence emissions at 620 nm and 665 nm were measured after excitation at 350 nm in a TR-FRET measuring instrument, for example a Rubystar (BMG Labtechnologies, Offenburg, Germany) or a Viewlux (Perkin-Elmer). The ratio of the emissions at 665 nm and 622 nm was taken as a measure of the amount of phosphorylated substrate. The data were normalized (enzyme reaction without test substance=0% inhibition; all other assay components but no enzyme=100% inhibition). Typically, the test substances were tested on the same microtitre plates at 11 different concentrations in the range from 20 μM to 0.073 nM (20 μM, 5.7 μM, 1.6 μM, 0.47 μM, 0.13 μM, 38 nM, 11 nM, 3.1 nM, 0.89 nM, 0.25 nM and 0.073 nM). The dilution series were prepared prior to the assay (2 mM to 7.3 nM in 100% DMSO) by serial dilutions. The IC50 values were calculated using a 4-parameter fit.
Background: In TR-FRET formats the signal depends on donor and acceptor labels being close together.

For assay [2], the system named is secretion of TNF-α in THP-1 cells. The assay can be described thus: TNF-α secretion in THP-1 cells (LPS-triggered). It counts as cell-based, human. Particulars: Homo sapiens, THP-1, 17 h, LPS 0.05 μg/ml, read-out: IC50 with respect to the secretion of TNF-α in THP-1 cells. As to the method:
TNF-α Secretion in THP-1 Cells
With the aid of this test, it is possible to test substances for their ability to inhibit secretion of TNF-α (tumour necrosis factor alpha) in THP-1 cells (human monocytic acute leukaemia cell line). TNF-α is a cytokine involved in inflammatory processes. In this test, TNF-α secretion is triggered by incubation with bacterial lipopolysaccharide (LPS).
THP-1 cells are kept in continuous suspension cell culture [RPMI 1460 medium with L-Glutamax (Gibco, Cat No. 61870-044) supplemented with foetal calf serum (FCS) 10% (Invitrogen, Cat No. 10082-147), 1% penicillin/streptomycin (Gibco BRL, Cat No. 15140-114)] and should not exceed a cell concentration of 1×10^6 cells/ml. The assay is carried out in cell culture medium (RPMI 1460 medium with L-Glutamax supplemented with FCS 10%).
In each case 2-2.5 μl of the cell suspension (corresponds to 4000 cells) per well were dispensed into a 384-well test plate (Greiner, Cat No. 784076), in each of which 40-50 nl substance had been dissolved in 100% DMSO. This was done using […] in the range from 20 μM to 0.073 nM for each substance. The cells were incubated at room temperature for 15 min. 2-2.5 μl of 0.1 μg/ml LPS (Sigma, Escherichia coli 055:B5, Cat. No. L5418) dissolved in cell culture medium (final concentration 0.05 μg/ml) were then dispensed into each well. As neutral control, cells were treated with 0.05 μg/ml LPS and 1% DMSO and, as inhibitor control, with 1% DMSO only.
The plates were centrifuged at 80 g for 30 s and incubated at 37° C., 5% CO2 and 95% atmospheric humidity for 17 h. The amount of TNF-α was determined using the TNF-alpha HTRF Detection Kit (Cisbio, Cat No. 62TNFPEB/C). To this end, 2 μl of the detection solution in each case, consisting of anti-TNF-α-XL665 conjugate and anti-TNF-α-cryptate conjugate dissolved in the reconstitution buffer in accordance with the manufacturer's instructions, were added for the HTRF (Homogeneous Time-Resolved Fluorescence) test. After the addition, the mixture was incubated either at room temperature for 3 h or at 4° C. overnight. The signals were then read at 620/665 nm using an HTRF-enabled measuring instrument such as the BMG PheraStar.
The activity of the substances is expressed as the ratio between neutral and inhibitor control in percent. The IC50 values were calculated using a 4-parameter fit.

Sequence of human IRAK4 (Q9NWZ3 whole entry): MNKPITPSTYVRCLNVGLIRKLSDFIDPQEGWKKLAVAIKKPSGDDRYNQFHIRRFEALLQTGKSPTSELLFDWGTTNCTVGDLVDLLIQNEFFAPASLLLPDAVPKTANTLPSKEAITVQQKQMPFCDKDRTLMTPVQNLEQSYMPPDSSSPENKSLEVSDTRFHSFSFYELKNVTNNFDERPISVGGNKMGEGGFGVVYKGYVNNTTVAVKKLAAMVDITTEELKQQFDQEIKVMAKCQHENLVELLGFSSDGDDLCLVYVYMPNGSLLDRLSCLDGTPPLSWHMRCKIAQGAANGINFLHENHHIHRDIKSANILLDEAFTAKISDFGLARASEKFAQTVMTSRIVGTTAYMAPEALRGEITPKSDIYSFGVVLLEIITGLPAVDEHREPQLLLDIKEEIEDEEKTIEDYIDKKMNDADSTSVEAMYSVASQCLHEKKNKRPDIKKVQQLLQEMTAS

For `O=C(Nc1cc2cn(C3CCS(=O)(=O)CC3)nc2cc1OCC1CC1)c1cccc(C(F)(F)F)n1` [Example 17, N-[6-(Cyclopropylmethoxy)-2-(1,1-dioxidotetrahydro-2H-thiopyran-4-yl)-2H-indazol-5-yl]-6-(trifluoromethyl)pyridine-2-carboxamide], the half-maximal inhibitory concentration (IC50) in assay [1] was 20 nM; in assay [2], 110 nM.
For `COc1cc2nn(C3CCOC3)cc2cc1NC(=O)c1cccc(C(F)(F)F)n1` (centres unmarked) [Example 29, N-[6-Methoxy-2-(tetrahydrofuran-3-yl)-2H-indazol-5-yl]-6-(trifluoromethyl)pyridine-2-carboxamide], in that order: 10 nM and 630 nM.
For `CC(C)(O)c1cc2nn(C3CCOCC3)cc2cc1NC(=O)c1cccc(C(F)(F)F)n1` [Example 34, N-[6-(2-Hydroxypropan-2-yl)-2-(tetrahydro-2H-pyran-4-yl)-2H-indazol-5-yl]-6-(trifluoromethyl)pyridine-2-carboxamide], in that order: 6 nM and 230 nM.
The corresponding values for `COc1cc2nn([C@H]3C[C@@H]4C[C@H]3CN4C)cc2cc1NC(=O)c1cccc(C(F)(F)F)n1` (relative stereo) [Example 19, rel-N-{6-Methoxy-2-[(1S,4S,5S)-2-methyl-2-azabicyclo[2.2.1]hept-5-yl]-2H-indazol-5-yl}-6-(trifluoromethyl)pyridine-2-carboxamide] are 9 nM and 190 nM.
As for `O=C(Nc1cc2cn(C3CCOCC3)nc2cc1Cl)c1cccc(C(F)F)n1` [Example 31, N-[6-Chloro-2-(tetrahydro-2H-pyran-4-yl)-2H-indazol-5-yl]-6-(difluoromethyl)pyridine-2-carboxamide], the 50% inhibitory concentration (IC50) in assay [1] was 22 nM; in assay [2] it was 90 nM.
On to `COc1cc2nn(C3CNC(=O)C3)cc2cc1NC(=O)c1cccc(C(F)(F)F)n1` (centres unmarked) [Example 22, N-[6-Methoxy-2-(5-oxopyrrolidin-3-yl)-2H-indazol-5-yl]-6-(trifluoromethyl)pyridine-2-carboxamide], for which the IC50 in assay [1] came out at 13 nM; in assay [2] it was 150 nM.
The corresponding values for `COc1cc2nn(C3CCN(CC(F)(F)F)CC3)cc2cc1NC(=O)c1cccc(C(F)(F)F)n1` [Example 3, N-{6-Methoxy-2-[1-(2,2,2-trifluoroethyl)piperidin-4-yl]-2H-indazol-5-yl}-6-(trifluoromethyl)pyridine-2-carboxamide] are 7 nM and 750 nM.
With `CC(C)(O)c1cc2nn([C@H]3CCOC3)cc2cc1NC(=O)c1cccc(C(F)(F)F)n1` [Example 36, N-{6-(2-Hydroxypropan-2-yl)-2-[(3S)-tetrahydrofuran-3-yl]-2H-indazol-5-yl}-6-(trifluoromethyl)pyridine-2-carboxamide], the concentration for half-maximal inhibition (IC50) in assay [1] was found to be 28 nM; in assay [2], 540 nM.
The corresponding values for `COc1cc2nn(C3CCOCC3)cc2cc1NC(=O)c1ccnc(C(C)C)n1` [Example 27, 2-Isopropyl-N-[6-methoxy-2-(tetrahydro-2H-pyran-4-yl)-2H-indazol-5-yl]pyrimidine-4-carboxamide] are 111 nM and 1790 nM.
For `O=C(Nc1cc2cn(C3CCOCC3)nc2cc1Cl)c1cccc(C(F)(F)F)n1` [Example 30, N-[6-Chloro-2-(tetrahydro-2H-pyran-4-yl)-2H-indazol-5-yl]-6-(trifluoromethyl)pyridine-2-carboxamide], in that order: 47 nM and 280 nM.
The corresponding values for `COc1cc2nn(C3CCOCC3)cc2cc1NC(=O)c1cccc(N)n1` [Example 26, 6-Amino-N-[6-methoxy-2-(tetrahydro-2H-pyran-4-yl)-2H-indazol-5-yl]pyridine-2-carboxamide] are 6 nM and 220 nM.
On to `CC(C)(O)c1cccc(C(=O)Nc2cc3cn(C4CCS(=O)(=O)CC4)nc3cc2Cl)n1` [Example 32, N-[6-Chloro-2-(1,1-dioxidotetrahydro-2H-thiopyran-4-yl)-2H-indazol-5-yl]-6-(2-hydroxypropan-2-yl)pyridine-2-carboxamide], for which the IC50 in assay [1] stood at 34 nM; in assay [2] it was 280 nM.
For `CC(C)(O)c1cc2nn([C@@H]3CCOC3)cc2cc1NC(=O)c1cccc(C(F)(F)F)n1` [Example 38, N-{6-(2-Hydroxypropan-2-yl)-2-[(3R)-tetrahydrofuran-3-yl]-2H-indazol-5-yl}-6-(trifluoromethyl)pyridine-2-carboxamide], in that order: 31 nM and 630 nM.
